Measured values published in patent publication US6756359B2, “C12 modified erythromycin macrolides and ketolides having antibacterial activity” (Chiron Corporation, priority 2001, dated 2004).
Values after ≈ are worked out from the molar mass of the structure shown.

Legend:
Assay in all cases: Antibacterial activity in vitro, MIC by broth microdilution
H. influenzae Hain_49247 = type: cell-based, Haemophilus influenzae; conditions: Table 5, Strain ID M: H. influenzae Hain_49247; unit assumed
Experimental: (§1) Representative compounds of the present invention were assayed in vitro for antibacterial activity against the bacterial isolates listed in Table 1 as follows:
(§2) The bacterial isolates listed in Table 1 were cultivated from −70° C. frozen stocks by two consecutive overnight passages (P1, P2) at 35° C. on 5% blood agar (Remel, Lenexa, Kans.). Chocolate agar (Remel) is used for Haemophilus influenzae. H. influenzae and Streptococcus pneumoniae are incubated in 5-10% CO2.
(§3) To determine the amount of solvent to be used to give the desired final concentration, the formula “weight obtained in mg/final concentration in mg/mL” will be used. It will give the amount of solvent in mL needed to be added to give the desired concentration. For example, if 2.5 mg/mL is the desired concentration and the weight of compound is 13.7 mg, then the amount of solvent to be added is 3.94 mL (13.7 mg/2.5 mg/mL=3.94 mLs). Methanol is used as the solvent to dissolve the test compounds. Further dilution of stock is done in sterile, deioinzed water. Drug stocks are kept frozen at −70° C., protected from light.
(§4) MICs are determined by the broth microdilution method in accordance with the NCCLS guidelines. In brief, organism suspensions are adjusted to a 0.5 McFarland standard to yield a final inoculum between 3×10^5 and 7×10^5 CFU/mL. Drug dilutions and inocula are made in sterile, cation adjusted Mueller-Hinton Broth (CAMHB) (Remel) for all but S. pneumoniae [CAMHB with 2-5% lysed horse blood (Remel)] and H. influenzae [Haemophilus Test Medium (Remel)]. An inoculum volume of 100 μl is added to wells containing 100 μl of broth with 2-fold serial dilutions of drug. All inoculated microdilution trays are incubated in ambient air at 35° C. for 18-24 hours, except for S. pneumoniae, and H. influenzae (both at 5-10% CO2).
(§5) Following appropriate incubation, the MIC is determined and the MIC is defined as the lowest concentration of the drug that prevented visible growth.

[1] = test system: S. pneumoniae Stpn_Erm 6849; type: cell-based, Streptococcus pneumoniae; conditions: Table 5, Strain ID I: S. pneumoniae Stpn_Erm 6849
Experimental: as §1, §2, §3, §4, §5

[2] = test system: S. pneumoniae Stpn_280-962 Pen S; type: cell-based, Streptococcus pneumoniae; conditions: Table 5, Strain ID H: S. pneumoniae Stpn_280-962
Experimental: as §1, §2, §3, §4, §5

[3] = test system: S. pneumoniae Stpn_Mef 5654; type: cell-based, Streptococcus pneumoniae; conditions: Table 5, Strain ID K: S. pneumoniae Stpn_Mef 5654; unit assumed
Experimental: as §1, §2, §3, §4, §5

[4] = test system: S. pneumoniae Stpn_Mef S 3427; type: cell-based, Streptococcus pneumoniae; conditions: Table 5, Strain ID L: S. pneumoniae Stpn_Mef S 3427
Experimental: as §1, §2, §3, §4, §5

S. pneumoniae Stpn_49619 = type: cell-based, Streptococcus pneumoniae; conditions: Table 5, Strain ID F: S. pneumoniae Stpn_49619
Experimental: as §1, §2, §3, §4, §5

[5] = test system: S. pneumoniae Stpn_297-749 Pen R; type: cell-based, Streptococcus pneumoniae; conditions: Table 5, Strain ID G: S. pneumoniae Stpn_297-749
Experimental: as §1, §2, §3, §4, §5

[6] = test system: S. pneumoniae Stpn_Erm S 4297; type: cell-based, Streptococcus pneumoniae; conditions: Table 5, Strain ID J: S. pneumoniae Stpn_Erm S 4297
Experimental: as §1, §2, §3, §4, §5

[7] = test system: S. epidermidis Step_f50654 Pen S; type: cell-based; conditions: Table 5, Strain ID C: S. epidermidis Step_f50654; unit assumed
Experimental: as §1, §2, §3, §4, §5

S. pyogenes Stpy_8668 = type: cell-based; conditions: Table 5, Strain ID E: S. pyogenes Stpy_8668
Experimental: as §1, §2, §3, §4, §5

S. aureus Stau_29213 = type: cell-based; conditions: Table 5, Strain ID A: S. aureus Stau_29213; unit assumed
Experimental: as §1, §2, §3, §4, §5

E. faecalis Enfa_29212 = type: cell-based; conditions: Table 5, Strain ID D: E. faecalis Enfa_29212; unit assumed
Experimental: as §1, §2, §3, §4, §5

[8] = test system: S. epidermidis Step_14990; type: cell-based; conditions: Table 5, Strain ID B: S. epidermidis Step_14990; unit assumed
Experimental: as §1, §2, §3, §4, §5

MIC (H. influenzae Hain_49247) [µg/mL]	MIC ([1]; unit assumed) [µg/mL]	MIC [2]	MIC [3] [µg/mL]	MIC ([4]; unit assumed) [µg/mL]	MIC (S. pneumoniae Stpn_49619)	MIC [5]	MIC ([6]; unit assumed) [µg/mL]	MIC [7] [µg/mL]	MIC (S. pyogenes Stpy_8668; unit assumed) [µg/mL]	MIC (S. aureus Stau_29213) [µg/mL]	MIC (E. faecalis Enfa_29212) [µg/mL]	MIC [8] [µg/mL]	MIC [1]	MIC [6]	Structure (SMILES)	MIC [4]	MIC (S. pyogenes Stpy_8668)
25 (≈ 29.8 µM)	0.78 (≈ 0.931 µM)	≦0.05	0.78 (≈ 0.931 µM)	0.2 (≈ 0.239 µM)	≦0.05	≦0.05	0.4 (≈ 0.477 µM)	3.13 (≈ 3.73 µM)	0.2 (≈ 0.239 µM)	3.13 (≈ 3.73 µM)	0.78 (≈ 0.931 µM)	3.13 (≈ 3.73 µM)	–	–	C/C=C/[C@]12OC(=O)N(CCCCn3cnc(-c4cccnc4)c3)[C@@H]1[C@@H](C)C(=O)[C@H](C)C[C@](C)(OC)[C@H](O[C@@H]1O[C@H](C)C[C@H](N(C)C)[C@H]1O)[C@@H](C)C(=O)[C@@H](C)C(=O)O[C@@H]2CC [65(2), (3aS,4R,7R,9R,10R,11S,13R,15R,15aR)-4-ethyl-11-methoxy-7,9,11,13,15-pentamethyl-2,6,8,14-tetraoxo-3a-[(1E)-prop-1-enyl]-1-[4-(4-pyridin-3-yl-1H-imidazol-1-yl)butyl]tetradecahydro-2H-oxacyclotetradecino[4,3-d][1,3]oxazol-10-yl 3,4,6-trideoxy-3-(dimethylamino)-D-xylo-hexopyranoside]	–	–
3.13 (≈ 3.78 µM)	0.78 (≈ 0.942 µM)	≦0.05	0.4 (≈ 0.483 µM)	0.1 (≈ 0.121 µM)	≦0.05	≦0.05	0.2 (≈ 0.242 µM)	0.4 (≈ 0.483 µM)	0.1 (≈ 0.121 µM)	0.4 (≈ 0.483 µM)	0.2 (≈ 0.242 µM)	0.4 (≈ 0.483 µM)	–	–	CC[C@H]1OC(=O)[C@@](C)(F)C(=O)[C@H](C)[C@@H](OC2O[C@H](C)C[C@H](N(C)C)[C@H]2O)[C@@](C)(OC)C[C@@H](C)C(=O)[C@H](C)[C@H]2N(CCCCc3ccnc4ccccc34)C(=O)O[C@]12CC (stereo partly drawn) [Example 17, (3aS,4R,7S,9R,10R,11S,13R,15R,15aR)-3a,4-diethyl-7-fluoro-11-methoxy-7,9,11,13,15-pentamethyl-2,6,8,14-tetraoxo-1-(4-quinolin-4-ylbutyl)tetradecahydro-2H-oxacyclotetradecino[4,3-d][1,3]oxazol-10-yl 3,4,6-trideoxy-3-(dimethylamino)-D-xylo-hexopyranoside]	–	–
3.13 (≈ 3.86 µM)	3.13 (≈ 3.86 µM)	≦0.05	0.4 (≈ 0.494 µM)	–	≦0.05	≦0.05	0.2 (≈ 0.247 µM)	0.78 (≈ 0.963 µM)	0.1 (≈ 0.123 µM)	0.78 (≈ 0.963 µM)	0.1 (≈ 0.123 µM)	0.4 (≈ 0.494 µM)	–	–	CC[C@H]1OC(=O)[C@H](C)C(=O)[C@H](C)[C@@H](OC2O[C@H](C)C[C@H](N(C)C)[C@H]2O)[C@@](C)(OC)C[C@@H](C)C(=O)[C@H](C)[C@H]2N(CCCCc3ccc4ccccc4n3)C(=O)O[C@]12CC (stereo partly drawn) [Example 18, (3aS,4R,7R,9R,10R,11S,13R,15R,15aR)-3a,4-diethyl-11-methoxy-7,9,11,13,15-pentamethyl-2,6,8,14-tetraoxo-1-(4-quinolin-2-ylbutyl)tetradecahydro-2H-oxacyclotetradecino[4,3-d][1,3]oxazol-10-yl 3,4,6-trideoxy-3-(dimethylamino)-D-xylo-hexopyranoside]	≦0.05	–
6.25 (≈ 7.55 µM)	0.78 (≈ 0.942 µM)	≦0.05	0.4 (≈ 0.483 µM)	0.1 (≈ 0.121 µM)	≦0.05	≦0.05	0.2 (≈ 0.242 µM)	0.4 (≈ 0.483 µM)	0.1 (≈ 0.121 µM)	0.4 (≈ 0.483 µM)	0.4 (≈ 0.483 µM)	0.4 (≈ 0.483 µM)	–	–	CC[C@H]1OC(=O)[C@@](C)(F)C(=O)[C@H](C)[C@@H](OC2O[C@H](C)C[C@H](N(C)C)[C@H]2O)[C@@](C)(OC)C[C@@H](C)C(=O)[C@H](C)[C@H]2N(CCCCc3ccc4ccccc4n3)C(=O)O[C@]12CC (stereo partly drawn) [Example 19, (3aS,4R,7S,9R,10R,11S,13R,15R,15aR)-3a,4-diethyl-7-fluoro-11-methoxy-7,9,11,13,15-pentamethyl-2,6,8,14-tetraoxo-1-(4-quinolin-2-ylbutyl)tetradecahydro-2H-oxacyclotetradecino[4,3-d][1,3]oxazol-10-yl 3,4,6-trideoxy-3-(dimethylamino)-D-xylo-hexopyranoside]	–	–
6.25 (≈ 7.44 µM)	–	≦0.05	0.4 (≈ 0.476 µM)	–	≦0.05	≦0.05	–	0.2 (≈ 0.238 µM)	–	0.2 (≈ 0.238 µM)	0.1 (≈ 0.119 µM)	0.1 (≈ 0.119 µM)	≦0.5	≦0.05	CC[C@H]1OC(=O)[C@H](C)C(=O)[C@H](C)[C@@H](OC2O[C@H](C)C[C@H](N(C)C)[C@H]2O)[C@@](C)(OC)C[C@@H](C)C(=O)[C@H](C)[C@H]2N(CCCCn3cc(-c4cccnc4)nc3C)C(=O)O[C@]12CC (stereo partly drawn) [Example 20, (3aS,4R,7R,9R,10R,11S,13R,15R,15aR)-3a,4-diethyl-11-methoxy-7,9,11,13,15-pentamethyl-1-[4-(2-methyl-4-pyridin-3-yl-1H-imidazol-1-yl)butyl]-2,6,8,14-tetraoxotetradecahydro-2H-oxacyclotetradecino[4,3-d][1,3]oxazol-10-yl 3,4,6-trideoxy-3-(dimethylamino)-D-xylo-hexopyranoside]	≦0.05	≦0.05

Structure (SMILES)	MIC (H. influenzae Hain_49247) [µg/mL]	MIC ([1]; unit assumed) [µg/mL]	MIC [2]	MIC [3] [µg/mL]	MIC ([4]; unit assumed) [µg/mL]	MIC (S. pneumoniae Stpn_49619)	MIC [5]	MIC ([6]; unit assumed) [µg/mL]	MIC [7] [µg/mL]	MIC (S. pyogenes Stpy_8668; unit assumed) [µg/mL]	MIC (S. aureus Stau_29213) [µg/mL]	MIC (E. faecalis Enfa_29212) [µg/mL]	MIC [8] [µg/mL]	MIC [1]	MIC [6]	MIC [4]	MIC (S. pyogenes Stpy_8668)
CC[C@H]1OC(=O)[C@H](C)C(=O)[C@H](C)[C@@H](OC2O[C@H](C)C[C@H](N(C)C)[C@H]2O)[C@@](C)(OC)C[C@@H](C)C(=O)[C@H](C)[C@H]2N(CCCCn3cnc4cccnc43)C(=O)O[C@]12CC (stereo partly drawn) [Example 14, (3aS,4R,7R,9R,10R,11S,13R,15R,15aR)-3a,4-diethyl-1-[4-(3H-imidazo[4,5-b]pyridin-3-yl)butyl]-11-methoxy-7,9,11,13,15-pentamethyl-2,6,8,14-tetraoxotetradecahydro-2H-oxacyclotetradecino[4,3-d][1,3]oxazol-10-yl 3,4,6-trideoxy-3-(dimethylamino)-D-xylo-hexopyranoside]	3.13 (≈ 3.91 µM)	0.4 (≈ 0.5 µM)	≦0.05	0.4 (≈ 0.5 µM)	–	≦0.05	≦0.05	0.1 (≈ 0.125 µM)	0.2 (≈ 0.25 µM)	–	0.4 (≈ 0.5 µM)	0.1 (≈ 0.125 µM)	0.2 (≈ 0.25 µM)	–	–	≦0.05	≦0.05
CC[C@H]1OC(=O)[C@H](C)C(=O)[C@H](C)[C@@H](OC2O[C@H](C)C[C@H](N(C)C)[C@H]2O)[C@@](C)(OC)C[C@@H](C)C(=O)[C@H](C)[C@H]2N(CCCCc3ccnc4ccccc34)C(=O)O[C@]12CC (stereo partly drawn) [Example 15, (3aS,4R,7R,9R,10R,11S,13R,15R,15aR)-3a,4-diethyl-11-methoxy-7,9,11,13,15-pentamethyl-2,6,8,14-tetraoxo-1-(4-quinolin-4-ylbutyl)tetradecahydro-2H-oxacyclotetradecino[4,3-d][1,3]oxazol-10-yl 3,4,6-trideoxy-3-(dimethylamino)-D-xylo-hexopyranoside]	3.13 (≈ 3.86 µM)	1.56 (≈ 1.93 µM)	≦0.05	0.2 (≈ 0.247 µM)	–	≦0.05	≦0.05	0.1 (≈ 0.123 µM)	0.4 (≈ 0.494 µM)	–	0.4 (≈ 0.494 µM)	0.1 (≈ 0.123 µM)	0.2 (≈ 0.247 µM)	–	–	≦0.05	≦0.05
